The values that follow come from ChEMBL document CHEMBL1201862, “PubChem BioAssay data set” (2004).

SMILES strings stand for the structures.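 Compound exposure: 48 hours, 5 concentrations, 96-well plates. GI50 is the concentration that inhibits growth by half.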 Activity calls are given as the source filed them. Cut-off read from the data, not from the text of the source: active = GI50 up to about 1.1 µM and inactive = higher. Some results are limits rather than exact numbers.

Some test systems named below: A549; CCRF-CEM; EKVX; HL-60; HOP-62; Hs-578T; K562; MDA-MB-435; NCI-H23; NCI-H460; NCI/ADR-RES; OVCAR-3; SN12C; SNB-75; SR; T47D; TK-10; U-251; UACC-257.
Holding throughout (assay): DTP human tumour cell line panel, 48 h

Regarding `Cc1cc(O)c2c(c1O)C(=O)c1c(O)ccc(O)c1C2=O` [Cynodontin], the GI50 in the test on A549, in the test with CCRF-CEM, in the test on EKVX, in the test with HL-60, in the test with HOP-62 and with Hs-578T was > 100 µM (inactive) each time. For the same compound, the GI50 in the test on K562, in the test with MDA-MB-435, with NCI-H23, in the test with NCI-H460, in the test with NCI/ADR-RES and in the test with OVCAR-3 was > 100 µM (inactive) throughout. Moreover, the GI50 in the test with SN12C was > 100 µM (inactive); with SNB-75, 52.5 µM (inactive); in the test with SR it was > 100 µM (inactive); in the test with T47D, > 100 µM (inactive); in the test with TK-10, > 100 µM (inactive); in the test on U-251 it was > 100 µM (inactive). In addition, the GI50 in the test with UACC-257 was > 100 µM (inactive).
Take `N#Cc1ccc(C(=O)/C=C/c2ccc(O)c(O)c2)cc1`: the GI50 is 15.3 µM (inactive) in the test with A549; 1.4 µM (inactive) in the test on CCRF-CEM; 17.2 µM (inactive) with EKVX; 2.5 µM (inactive) with HL-60; 17.9 µM (inactive) with HOP-62; 24.4 µM (inactive) in the test with Hs-578T. Besides, the GI50 is 7.1 µM (inactive) with K562; 14.4 µM (inactive) in the test with MDA-MB-435; 16.9 µM (inactive) in the test with NCI-H23; 16.1 µM (inactive) in the test on NCI-H460; > 43 µM (inactive) in the test on NCI/ADR-RES; 15.8 µM (inactive) in the test on OVCAR-3. Further, the GI50 with SN12C was 15.5 µM (inactive); in the test on SNB-75 it was 17.4 µM (inactive); in the test on SR, 1.57 µM (inactive); with T47D, 16.3 µM (inactive); with TK-10, 14.1 µM (inactive); in the test with U-251, 13.4 µM (inactive). Moreover, the GI50 in the test on UACC-257 was 16.2 µM (inactive).
As for `CCCC(=O)Nc1cn(COC)c(C(=O)N2C[C@H]3C[C@@]34C2=CC(=O)c2[nH]cc(C)c24)n1`, the GI50 with A549 was 12.2 µM (inactive); in the test on CCRF-CEM, 0.71 µM (active); in the test with EKVX it was 11.2 µM (inactive); with HL-60 it was 0.728 µM (active); with HOP-62 it was 7.98 µM (inactive); with Hs-578T, 15.4 µM (inactive). The GI50 was 5.31 µM (inactive) in the test with K562; 6.81 µM (inactive) in the test on MDA-MB-435; 2.02 µM (inactive) in the test with NCI-H23; 3.24 µM (inactive) in the test on NCI-H460; 6.21 µM (inactive) with NCI/ADR-RES; 10.4 µM (inactive) with OVCAR-3. Moreover, the GI50 in the test with SN12C is 11.5 µM (inactive); in the test on SNB-75, 4.73 µM (inactive); with SR, 2.2 µM (inactive); in the test on T47D, 1.88 µM (inactive); with TK-10 it was 10.1 µM (inactive); with U-251, 4.42 µM (inactive). Besides, in the test on UACC-257, the GI50 is 8.71 µM (inactive).
Consider `N=c1c2c(ncn1N)Oc1c(c(-c3ccccc3)nn1-c1ccccc1)C2c1ccc(Cl)cc1` (stereo not given), for which the GI50 was 1.82 µM (inactive) in the test on A549; 2.47 µM (inactive) in the test with CCRF-CEM; 1.82 µM (inactive) with EKVX; 0.408 µM (active) in the test with HL-60; 1.66 µM (inactive) in the test with HOP-62; 1.64 µM (inactive) in the test on Hs-578T. In addition, the GI50 is 0.731 µM (active) in the test with K562; 1.62 µM (inactive) with MDA-MB-435; 1.87 µM (inactive) with NCI-H23; 1.42 µM (inactive) with NCI-H460; 1.68 µM (inactive) in the test on NCI/ADR-RES; 1.56 µM (inactive) in the test on OVCAR-3. The GI50 was 1.79 µM (inactive) in the test with SN12C; 1.5 µM (inactive) with SNB-75; 0.918 µM (active) in the test with SR; 2.3 µM (inactive) in the test with T47D; 1.76 µM (inactive) in the test on TK-10; 1.65 µM (inactive) in the test with U-251. The GI50 in the test with UACC-257 was 1.76 µM (inactive).
`CC(=O)NC1C(OCc2ccccc2)OC(CO)C(O)C1OCC(=O)N[C@@H](C)C(=O)N[C@H](CCC(=O)NCCNCCNc1c2ccccc2nc2cccc([N+](=O)[O-])c12)C(N)=O` (stereo not given in full): the GI50 with A549 is 35.4 µM (inactive); with CCRF-CEM, 24 µM (inactive); in the test with EKVX, 31.6 µM (inactive); in the test with HL-60, 26.2 µM (inactive); in the test on HOP-62 it was 41.4 µM (inactive); with Hs-578T, 22.5 µM (inactive). Also, the GI50 in the test on K562 is 32.3 µM (inactive); in the test on MDA-MB-435, 29.6 µM (inactive); in the test on NCI-H23, 16.4 µM (inactive); with NCI-H460 it was 15.1 µM (inactive); with NCI/ADR-RES it was > 100 µM (inactive); in the test with OVCAR-3, 44 µM (inactive). The GI50 with SN12C was 59.7 µM (inactive); in the test on SNB-75, 33.2 µM (inactive); in the test with SR it was 18.1 µM (inactive); in the test with T47D, 27.5 µM (inactive); in the test with TK-10, 31.8 µM (inactive); in the test with U-251 it was 34.3 µM (inactive). The GI50 in the test on UACC-257 was 21.2 µM (inactive).
Regarding `CN(C)CCCN1c2ccccc2C(C)(C)c2ccccc21` [DIMETACRINE], the GI50 in the test on A549 is 14.8 µM (inactive); in the test with CCRF-CEM, 22.4 µM (inactive); in the test with EKVX, 17.6 µM (inactive); in the test on HL-60 it was 15.1 µM (inactive); with HOP-62, 14.8 µM (inactive); in the test with Hs-578T, 15.1 µM (inactive). For the same compound, the GI50 in the test with K562 was 13.3 µM (inactive); in the test with MDA-MB-435 it was 13.2 µM (inactive); with NCI-H23 it was 16.3 µM (inactive); in the test on NCI-H460, 13.6 µM (inactive); in the test on NCI/ADR-RES, 17.1 µM (inactive); with OVCAR-3, 14 µM (inactive). The GI50 in the test with SN12C was 14.4 µM (inactive); with SNB-75, 10.9 µM (inactive); with SR, 13.1 µM (inactive); in the test on T47D, 17.2 µM (inactive); in the test with TK-10 it was 14.2 µM (inactive); in the test with U-251, 12.4 µM (inactive). Besides, the GI50 with UACC-257 is 11.7 µM (inactive).
For the compound `COc1ccc(/C=C/C(=N/NC(=O)N/N=C(/C=C/c2ccc(OC)cc2)C(C)C)C(C)C)cc1`, the GI50 with A549 was 45.3 µM (inactive); with CCRF-CEM it was 48.9 µM (inactive); in the test on EKVX it was 40 µM (inactive); in the test on HL-60 it was 33 µM (inactive); with HOP-62, 22 µM (inactive); in the test with Hs-578T it was > 100 µM (inactive). Further, the GI50 with K562 is 37.8 µM (inactive); in the test with MDA-MB-435 it was > 100 µM (inactive); in the test with NCI-H23 it was > 100 µM (inactive); in the test on NCI-H460, 48.3 µM (inactive); in the test with NCI/ADR-RES, 69.7 µM (inactive); with OVCAR-3, 41.9 µM (inactive). Moreover, the GI50 is > 100 µM (inactive) with SN12C; > 100 µM (inactive) in the test on SNB-75; > 100 µM (inactive) in the test with SR; 25.9 µM (inactive) in the test with T47D; 50 µM (inactive) with TK-10; 71 µM (inactive) in the test on U-251. In addition, in the test on UACC-257, the GI50 was > 100 µM (inactive).
As to `N=C(N)NS(=O)(=O)c1ccc(NNc2c3ccccc3nc3c(C(=O)Nc4ccc(S(N)(=O)=O)cc4)cccc23)cc1`, the GI50 was > 100 µM (inactive) in the test with A549; 8.24 µM (inactive) in the test with CCRF-CEM; 80.2 µM (inactive) in the test on EKVX; 23.9 µM (inactive) with HL-60; 53.7 µM (inactive) in the test with HOP-62; 18.4 µM (inactive) in the test on Hs-578T. The GI50 is 19.9 µM (inactive) in the test on K562; 72.8 µM (inactive) in the test on MDA-MB-435; 51.1 µM (inactive) in the test with NCI-H23; 19.7 µM (inactive) in the test on NCI-H460; > 100 µM (inactive) with NCI/ADR-RES; 22.9 µM (inactive) with OVCAR-3. Besides, the GI50 is 43.8 µM (inactive) in the test with SN12C; 26.4 µM (inactive) with SNB-75; 5.37 µM (inactive) in the test with SR; 4.49 µM (inactive) in the test on T47D; > 100 µM (inactive) in the test on TK-10; 7.59 µM (inactive) in the test with U-251. Further, the GI50 in the test with UACC-257 is > 100 µM (inactive).
Take `CC1CCCCCC(=O)c2c(O)cc(O)cc2CC(=O)O1` (stereo not given) [CURVULARIN]: the GI50 in the test on A549 was > 100 µM (inactive); with CCRF-CEM, 74.3 µM (inactive); in the test on EKVX, 61.5 µM (inactive); in the test on HL-60, 54.3 µM (inactive); in the test on HOP-62, > 100 µM (inactive); in the test with Hs-578T, > 100 µM (inactive). In addition, the GI50 in the test on K562 was 41.6 µM (inactive); with MDA-MB-435, > 100 µM (inactive); with NCI-H23, 48.9 µM (inactive); in the test with NCI-H460 it was 98.2 µM (inactive); in the test on NCI/ADR-RES it was > 100 µM (inactive); in the test with OVCAR-3, 96.6 µM (inactive). Besides, the GI50 is > 100 µM (inactive) with SN12C; 57.4 µM (inactive) in the test with SNB-75; 44.5 µM (inactive) in the test on SR; 59.2 µM (inactive) in the test with T47D; 90.2 µM (inactive) with TK-10; > 100 µM (inactive) in the test with U-251. In addition, in the test on UACC-257, the GI50 is 55.6 µM (inactive).
Turning to `NCC1OC(n2cnc3c(N)ncnc32)CC1O` (stereo not given), the GI50 in the test on A549, in the test on CCRF-CEM, in the test on EKVX, in the test with HL-60, with HOP-62 and in the test on Hs-578T was > 100 µM (inactive) throughout. The GI50 in the test on K562, in the test on MDA-MB-435, with NCI-H23, in the test on NCI-H460, in the test on NCI/ADR-RES and in the test with OVCAR-3 was > 100 µM (inactive) in each case. Further, the GI50 in the test with SN12C, in the test on SNB-75, in the test on SR, with T47D, in the test with TK-10 and in the test on U-251 was > 100 µM (inactive) each time. In addition, the GI50 in the test on UACC-257 was > 100 µM (inactive).
